Some test systems named below: SN12C renal; A549 NSCLC; PC-3 prostate; IGROV1 ovarian; CAKI-1 renal; 786-0 renal; DU-145 prostate; HL-60(TB) leukemia; MDA-MB-435; SK-MEL-2 melanoma; OVCAR-8 ovarian.
What all share (experiment): NCI-60 cell line screen, 48 h

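Five compound concentrations were applied to cells in 96-well plates for 48 hours; endpoints were derived by simple linear interpolation of the resulting dose-response curve. TGI: concentration producing complete growth inhibition.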

For the compound `O=c1[nH]c(=O)n(COCCO)cc1-c1ccccc1`, the TGI in the assay on SN12C renal, in the assay on A549 NSCLC, with PC-3 prostate, in the assay with IGROV1 ovarian, in the assay on CAKI-1 renal and in the assay with 786-0 renal was above 100 µM each time. Moreover, the TGI in the assay on DU-145 prostate, with HL-60(TB) leukemia, with MDA-MB-435, in the assay on SK-MEL-2 melanoma and in the assay with OVCAR-8 ovarian was above 100 µM each time.

For the compound `CCNc1nc2ccccc2nc1NCC`, the TGI in the assay with SN12C renal, in the assay on A549 NSCLC, in the assay on PC-3 prostate, in the assay on IGROV1 ovarian, with CAKI-1 renal and with 786-0 renal was above 100 µM throughout. For the same compound, the TGI with DU-145 prostate, in the assay on HL-60(TB) leukemia, in the assay with MDA-MB-435, with SK-MEL-2 melanoma and in the assay on OVCAR-8 ovarian was above 100 µM in each case.

Regarding `O=C(O)c1cc(/C=C/c2ccc(O)c(O)c2)ccc1O`, the TGI with SN12C renal, in the assay with A549 NSCLC, with PC-3 prostate, with IGROV1 ovarian, in the assay with CAKI-1 renal and in the assay with 786-0 renal was above 100 µM throughout. In addition, the TGI in the assay with DU-145 prostate, in the assay with HL-60(TB) leukemia, in the assay on MDA-MB-435, in the assay on SK-MEL-2 melanoma and in the assay on OVCAR-8 ovarian was above 100 µM in each case.

`O=C(O)C(C1NCCS1)N1Cc2ccccc2C1` (stereo not drawn): the TGI in the assay on SN12C renal, with A549 NSCLC, in the assay on PC-3 prostate, with IGROV1 ovarian, in the assay on CAKI-1 renal and in the assay on 786-0 renal was above 100 µM each time. Also, the TGI in the assay on DU-145 prostate, in the assay with HL-60(TB) leukemia, in the assay on MDA-MB-435, with SK-MEL-2 melanoma and with OVCAR-8 ovarian was above 100 µM throughout.

On to `CS(=O)(=O)c1ccc(C2=C(c3ccccc3)C(=O)OC2)cc1`, for which the TGI in the assay on SN12C renal, in the assay with A549 NSCLC, with PC-3 prostate, with IGROV1 ovarian, with CAKI-1 renal and in the assay on 786-0 renal was above 100 µM in each case. The TGI in the assay on DU-145 prostate, in the assay on HL-60(TB) leukemia, in the assay on MDA-MB-435, in the assay on SK-MEL-2 melanoma and with OVCAR-8 ovarian was above 100 µM throughout.

Regarding `CCOC(=O)C(NC(=O)Nc1ccccc1)(Nc1cccc(Cl)c1)C(F)(F)F` (stereo not drawn), the TGI in the assay with SN12C renal, in the assay with A549 NSCLC, in the assay with PC-3 prostate, with IGROV1 ovarian, in the assay with CAKI-1 renal and in the assay on 786-0 renal was above 100 µM each time. Moreover, the TGI in the assay on DU-145 prostate, in the assay with HL-60(TB) leukemia, in the assay on MDA-MB-435, in the assay on SK-MEL-2 melanoma and with OVCAR-8 ovarian was above 100 µM each time.

On to `CN(C)CCNc1ccccn1`, for which the TGI in the assay with SN12C renal, with A549 NSCLC, in the assay with PC-3 prostate, in the assay with IGROV1 ovarian, in the assay with CAKI-1 renal and in the assay with 786-0 renal was above 100 µM throughout. For the same compound, the TGI with DU-145 prostate, in the assay with HL-60(TB) leukemia, in the assay with MDA-MB-435, in the assay on SK-MEL-2 melanoma and in the assay on OVCAR-8 ovarian was above 100 µM in each case.

Consider `c1ccc2c3c(c(N4CCNCC4)nc2c1)CCCC3`, for which the TGI with SN12C renal was 31.1 µM; in the assay on A549 NSCLC, 30.8 µM; with PC-3 prostate, 25.7 µM; in the assay with IGROV1 ovarian, 25 µM; with CAKI-1 renal, 21.9 µM; with 786-0 renal it was 27.7 µM. Further, the TGI in the assay on DU-145 prostate is 28.6 µM; in the assay on HL-60(TB) leukemia it was 24.3 µM; in the assay with MDA-MB-435, 24.4 µM; in the assay with SK-MEL-2 melanoma, 25.2 µM; with OVCAR-8 ovarian it was 29.6 µM.

The record behind these values is PubChem BioAssay (NCI).
